Legend:
Type in all cases: in vivo
Amaranthus retroflexus = test: Post-emergence application of herbicide and safener by the tank mix method, herbicidal action on weed; conditions: four weeks
Description: (§1) Seeds of various crop plants and weed species were sown in sandy loam soil in round plastic pots of a diameter of 13 cm and covered with a layer of sandy loam of a thickness of about 1 cm. The pots were placed in a greenhouse under favorable growth conditions for a period of about two to three weeks, allowing the plants to reach a growth stage of 2 to 4 leaves. The herbicides in the form of liquid (for example emulsion concentrates) or dry (for example water-dispersible powders) formulations were mixed with a standard additive (based on rapeseed oil methyl ester), diluted with deionized water to the required concentrations and applied to the green parts of the plants and the uncovered part of the soil surface with a spray bar using a water application rate of 300 liters per hectare. In the experiment shown below, safener and the herbicide foramsulfuron were in each case used as 20 percent strength water-dispersible powder (results see table 1.2.1). The pots were placed in a greenhouse under favorable growth conditions. Visual scoring of the herbicidal action was carried out four weeks after the herbicide application. Evaluation was carried out on a percentage basis by comparison with untreated control plants (0%=no noticeable effect compared with the untreated plant, 100%=treated plant dies).

Setaria viridis [1] = test: as above; conditions: four weeks
Description: as §1

[2] = system: Zea mays (corn), cv. 'Lorenzo'; test: Post-emergence application of herbicide after seed dressing with safener, crop damage; conditions: for % damage in ZEAMA: four weeks; for Safener action as % damage reduction in crop plants: ZEAMA
Method: The number of crop plant seeds required for each application rate of safener was calculated. Sufficient seeds were weighed out into glass bottles having a screw-on lid. The volume of the glass bottles was approximately twice that of the seeds weighed out. The safeners were formulated as 20 percent strength water-dispersible powders. These formulations were weighed out to give the required application rates (g of a.i./kg of seed). The samples were added to the seed in the glass containers, and sufficient water to form a suitable seed dressing was then added. The glass bottles were closed and then mounted in an overhead shaker (which turns the bottles at moderate speed for a period of up to one hour) so that the seeds were uniformly covered with the seed dressing. The bottles were opened and the seed was ready for use in pre-emergence or post-emergence experiments, as described below. The seeds treated with safener and untreated seeds were sown in sandy loam soil in round plastic pots of a diameter of 13 cm and covered with a layer of sandy loam of a thickness of about 1 cm. The pots were placed in a greenhouse under favorable growth conditions for a period of about two to three weeks, allowing the plants to reach a growth stage of 2 to 4 leaves. The herbicides in the form of liquid (for example emulsion concentrates) or dry (for example water-dispersible powders) formulations were mixed with a standard additive (based on rapeseed oil methyl ester), diluted with deionized water to the required concentrations and applied to the green parts of the plants and the uncovered part of the soil surface with a spray bar using a water application rate of 300 liters per hectare. In the experiment shown below, the herbicide foramsulfuron was used as 20 percent strength water-dispersible powder (results see table 2.3.1). The pots were placed in a greenhouse under favorable growth conditions. Visual scoring of the herbicidal action was carried out four weeks after the herbicide application. Evaluation was carried out on a percentage base by comparison with untreated control plants (0%=no noticeable effect compared with the untreated plant, 100%=treated plant dies).

[3] = system: Zea mays (corn), cv. 'Lorenzo'; test: Post-emergence application of herbicide and safener by the tank mix method, crop damage; conditions: for % damage in ZEAMA: four weeks; for Safener action as % damage reduction in crop plants: ZEAMA, safener 250 g a.i./ha + herbicide H2 40 g a.i./ha
Description: as §1

[4] = system: Zea mays (corn), cv. 'Lorenzo'; test: Pre-emergence application of herbicide and safener by the tank mix method, crop damage; conditions: for Safener action as % damage reduction in crop plants: ZEAMA, safener 250 g a.i./ha + herbicide H1 100 g a.i./ha
Method: (§2) Seeds of various crop plants and weed species were sown in sandy loam soil in round plastic pots of a diameter of 13 cm and covered with a layer of sandy loam of a thickness of about 1 cm. Herbicides and safeners in the form of liquid (for example emulsion concentrates) or dry (for example water-dispersible powders) formulations were diluted with deionized water to the required concentration and applied to the surface of the soil with a spray bar using a water application rate of 300 liters per hectare. In the experiment shown below, the safeners were used as 20 percent strength water-dispersible powders and the herbicide isoxaflutole was used as an aqueous suspension concentrate (see table 1.1.1). The pots were placed in a greenhouse under favorable growth conditions. Visual scoring of the herbicidal action was carried out four weeks after the herbicide application. Evaluation was carried out on a percentage basis by comparison with untreated control plants (0%=no noticeable effect compared with the untreated plant, 100%=treated plant dies).

Chenopodium album = test: Pre-emergence application of herbicide and safener by the tank mix method, herbicidal action on weed; conditions: four weeks
Method: as §2

Setaria viridis [5] = test: as above; conditions: four weeks
Method: as §2

[6] = system: Zea mays (corn), cv. 'Lorenzo'; test: Pre-emergence application of herbicide after seed dressing with safener, crop damage; conditions: for Safener action as % damage reduction in crop plants: ZEAMA; for % damage in ZEAMA: four weeks
Method: (§3) The number of crop plant seeds required for each application rate of safener was calculated. Sufficient seeds were weighed out into glass bottles having a screw-on lid. The volume of the glass bottles was approximately twice that of the seeds weighed out. The safeners were formulated as 20 percent strength water-dispersible powders. These formulations were weighed out to give the required application rates (g of a.i./kg of seed). The samples were added to the seed in the glass containers, and sufficient water to form a suitable seed dressing was then added. The glass bottles were closed and then mounted in an overhead shaker (which turns the bottles at moderate speed for a period of up to one hour) so that the seeds were uniformly covered with the seed dressing. The bottles were opened and the seed was ready for use in pre-emergence or post-emergence experiments, as described below. The seeds which had been treated with safener and untreated seeds as controls were sown in sandy loam soil in round plastic pots of a diameter of 13 cm and covered with a layer of sandy loam of a thickness of about 1 cm. The herbicides in the form of liquid (for example emulsion concentrates) or dry (for example water-dispersible powders) formulations were diluted with deionized water to the required concentrations and applied to the surface of the soil with a spray bar using a water application rate of 300 liters per hectare. In the two experiments shown below (results see tables 2.2.1 and 2.2.2), the herbicide isoxaflutole was used as an aqueous suspension concentrate. The pots were placed in a greenhouse under favorable growth conditions. Visual scoring of the herbicidal action was carried out four weeks after the herbicide application. Evaluation was carried out on a percentage basis by comparison with untreated control plants (0%=no noticeable effect compared with the untreated plant, […]).

[7] = system: Glycine max (soybean), cv. 'Lambert'; test: as above; conditions: for Safener action as % damage reduction in crop plants: GLXMA; for % damage in GLXMA: four weeks
Method: as §3

[8] = herbicide H2 40 g a.i./ha alone, no safener, post-emergence
[9] = safener 250 g a.i./ha + herbicide H1 (isoxaflutole) 100 g a.i./ha, pre-emergence tank mix, visual scoring four weeks after application
[10] = safener 250 g a.i./ha + herbicide H1 100 g a.i./ha, pre-emergence tank mix
[11] = safener 250 g a.i./ha + herbicide H2 40 g a.i./ha, post-emergence tank mix
[12] = seed dressing with safener 1 g a.i./kg of seed, herbicide H2 40 g a.i./ha post-emergence
[13] = seed dressing with safener 1 g a.i./kg of seed, then herbicide H2 40 g a.i./ha post-emergence
[14] = seed dressing with safener 1 g a.i./kg of seed, herbicide H1 100 g a.i./ha pre-emergence
[15] = seed dressing with safener 1 g a.i./kg of seed, then herbicide H1 100 g a.i./ha pre-emergence
[16] = safener 250 g a.i./ha + herbicide H2 (foramsulfuron) 40 g a.i./ha, post-emergence tank mix
[17] = herbicide H1 100 g a.i./ha alone, no safener, pre-emergence
[18] = herbicide H1 100 g a.i./ha pre-emergence, untreated seeds (no safener)

Row | SMILES | Safener action as % damage reduction in crop plants ([4]; pre-emergence tank mix) [%] | % damage in ZEAMA [4, 9] [%] | Herbicidal action in CHEAL (in %) (Chenopodium album; [10]) [%] | Herbicidal action in SETVI (in %) (Setaria viridis [5]; [10]) [%] | Herbicidal action as % damage in AMARE (Amaranthus retroflexus; [11]) [%] | Herbicidal action as % damage in SETVI (Setaria viridis [1]; [11]) [%] | Safener action as % damage reduction in crop plants [2, 12] [%] | % damage in ZEAMA [2, 13] [%] | Safener action as % damage reduction in crop plants [6, 14] [%] | % damage in ZEAMA [6, 15] [%] | Safener action as % damage reduction in crop plants [7, 14] [%] | % damage in GLXMA [7, 15] [%] | Safener action as % damage reduction in crop plants ([3]; post-emergence tank mix) [%] | % damage in ZEAMA [3, 16] [%] | also measured
1 | COc1cc(OC)nc(NC(=O)NS(=O)(=O)c2cc(NC=O)ccc2C(=O)N(C)C)n1 [Herbicide H2, foramsulfuron, reference compound] | – | – | – | – | – | – | – | – | – | – | – | – | – | – | Herbicidal action as % damage in AMARE (Amaranthus retroflexus; [8]): 91%; Herbicidal action as % damage in SETVI (Setaria viridis [1]; [8]): 93%; % damage in ZEAMA ([2]; herbicide H2 40 g a.i./ha post-emergence, untreated seeds (no safener)): 37%; % damage in ZEAMA [3, 8]: 39%
2 | O=C(O)c1ccc(O)cc1O [Comp. 588, 4-hydroxysalicylic acid] | 61 | 9 | 92 | 97 | 95 | 95 | 73 | 10 | 59 | 12 | 69 | 27 | 74 | 10 | –
3 | O=C(O)c1ccc(F)cc1O [Comp. 253, 4-fluorosalicylic acid] | 83 | 4 | 90 | 93 | 91 | 93 | 78 | 8 | 69 | 9 | 63 | 32 | 82 | 7 | –
4 | CS(=O)(=O)c1cc(C(F)(F)F)ccc1C(=O)c1cnoc1C1CC1 [Herbicide H1, isoxaflutole, reference compound] | – | – | – | – | – | – | – | – | – | – | – | – | – | – | % damage in ZEAMA ([4]; herbicide H1 100 g a.i./ha alone, no safener, pre-emergence, four weeks): 23%; Herbicidal action in CHEAL (in %) (Chenopodium album; [17]): 90%; Herbicidal action in SETVI (in %) (Setaria viridis [5]; [17]): 92%; % damage in ZEAMA [6, 18]: 29%; % damage in GLXMA [7, 18]: 87%

— patent US8138118B2, “Use of hydroxyaromatics as safeners” (Bayer CropScience AG, priority 2003, dated 2012)
